{
  "source": "patent US20070191442A1",
  "about": "“Aqueous Pharmaceutical Formulations of ER-beta Selective Ligands” (priority 2006, published 2007)",
  "assay_type_in_all_cases": "physicochemical",
  "key": {"[1]": {"assay": "Chemical stability of a pharmaceutical composition of Compound 1 (potency, degradation impurities by HPLC)", "conditions": "for Potency (percent of the initial API concentration) / Impurity (MW not given) / Impurity MW 279 / Impurity MW 556 / Impurity MW 574: 15% HPBCD, pH 9.2; for Impurity (MW not given) / Impurity MW 279 / Impurity MW 556 / Impurity MW 574: HPLC", "description": "As used herein, potency refers to the percent of the initial API concentration.\nThe potency of each composition was determined, and the concentration of impurities from degradation was measured by HPLC, as shown in Table 4."}, "[2]": {"assay": "Solubility of Compound 1 formulated with HPBCD (FIG. 2, FIG. 3)", "source_text": "FIG. 2 depicts the water solubility of the unionized form of Compound 1 with increasing concentrations of hydroxypropyl-beta-cyclodextrin (HPBCD). FIG. 3 depicts the water solubility of the ionized form of Compound 1 at pH 9.0 and 10.3 with increasing concentrations of hydroxypropyl-beta-cyclodextrin (HPBCD)."}, "[3]": {"assay": "Water solubility of Compound 1 with increasing pH (FIG. 1)", "source_text": "FIG. 1 depicts the water solubility of Compound 1 with increasing pH. The aqueous pharmaceutical compositions of the invention include a solubilizer/complexant component, to aid in solubilizing the ERβ selective ligand. […] Accordingly, present compositions include a solubilizer/complexant component to aid in solubilization. Generally, the solubilizer/complexant component consists of one or more solubilizing and/or complexing agents known to be useful in the preparation of pharmaceutical formulations. In some embodiments, the solubilizer/complexant component consists of a single solubilizing and/or complexing agent. In some embodiments, the solubilizer/complexant component includes, but is not limited to, cosolvents such as glycerine, ethanol, propylene glycol, sorbitol and polyethylene glycol, and surfactants such as the polyoxyethylene sorbitan fatty acid esters (e.g., polysorbate 80), polyoxyethylene castor oil derivatives (e.g., cremophor EL, cremophor RH40), vitamin E TPGS (d-alpha-tocopheryl polyethylene glycol), solutol (polyethylene glycol esters of hydroxystearate), polyoxyethylene-polyoxypropylene copolymers, polyoxyethylene fatty alcohol ethers, polyethoxylated fatty acid esters, polyoxyethylene-glycerol fatty esters, polyglycolized glycerides, polyethoxylated cholesterols, polyethoxylated sterols, and polyethoxylated vegetable oils. In some embodiments, the solubilizer/complexant component includes, but is not limited to, cosolvents such as glycerine, ethanol, propylene glycol, and polyethylene glycol, and surfactants such as the polyoxyethylene sorbitan fatty acid esters, polyoxyethylene castor oil derivatives, vitamin E TPGS, and solutol. […] Examples of some preferred solubilizing and/or complexing agents include cyclodextrins (including alpha, beta and gamma cyclodextrins) and substituted cyclodextrins, for example hydroxypropyl beta-cyclodextrin and sulfobutyl ether beta-cyclodextrin, with hydroxypropyl beta-cyclodextrin being preferred. […]"}, "[4]": {"assay": "Serial dilution study with phosphate buffered saline as diluent and blood model; precipitate observed for two minutes", "description": "A serial dilution study was also undertaken to assess the risk of Compound 1 precipitating upon injection. Phosphate buffered saline (PBS) was used as the diluent and blood model. Accordingly, 10 mg/mL (at pH 9.2) and 30 mg/mL (at pH 10.5) compositions of Compound 1 were prepared by the method described in Example 1, both having 15% HPBCD. The solutions were then serially diluted with PBS."}},
  "data": [
    {"smiles": "N#Cc1cc(-c2ccc(O)c(F)c2)cc2ccc(O)cc12", "note": "[Compound 1, 3-(3-Fluoro-4-hydroxy-phenyl)-7-hydroxy-naphthalene-1-carbonitrile]", "values": [
      {"measurement": "Potency (percent of the initial API concentration)", "setting": "[1]; stored 1 mo. at 25 °C", "result": 100.8},
      {"measurement": "Potency (percent of the initial API concentration)", "setting": "[1]; stored 1 mo. at 40 °C", "result": 100.4},
      {"measurement": "Impurity (MW not given)", "setting": "[1]; stored 1 mo. at 40 °C", "result": 0.06},
      {"measurement": "Impurity MW 279", "setting": "[1]; stored 1 mo. at 40 °C", "result": 0.07},
      {"measurement": "Impurity MW 556", "setting": "[1]; stored 1 mo. at 40 °C", "result": 0.33},
      {"measurement": "Impurity MW 574", "setting": "[1]; stored 1 mo. at 40 °C", "result": 0.03},
      {"measurement": "Potency (percent of the initial API concentration)", "setting": "[1]; stored 3 mo. at 4 °C", "result": 99.9},
      {"measurement": "Potency (percent of the initial API concentration)", "setting": "[1]; stored 3 mo. at 25 °C", "result": 98.9},
      {"measurement": "Impurity (MW not given)", "setting": "[1]; stored 3 mo. at 25 °C", "result": 0.02},
      {"measurement": "Impurity MW 279", "setting": "[1]; stored 3 mo. at 25 °C", "result": 0.03},
      {"measurement": "Impurity MW 556", "setting": "[1]; stored 3 mo. at 25 °C", "result": 0.11},
      {"measurement": "Potency (percent of the initial API concentration)", "setting": "[1]; stored 3 mo. at 40 °C", "result": 98.1},
      {"measurement": "Impurity (MW not given)", "setting": "[1]; stored 3 mo. at 40 °C", "result": 0.12},
      {"measurement": "Impurity MW 279", "setting": "[1]; stored 3 mo. at 40 °C", "result": 0.16},
      {"measurement": "Impurity MW 556", "setting": "[1]; stored 3 mo. at 40 °C", "result": 0.62},
      {"measurement": "Impurity MW 574", "setting": "[1]; stored 3 mo. at 40 °C", "result": 0.06},
      {"measurement": "Potency (percent of the initial API concentration)", "setting": "[1]; stored 6 mo. at 4 °C", "result": 98.0},
      {"measurement": "Impurity MW 556", "setting": "[1]; stored 6 mo. at 4 °C", "result": 0.06},
      {"measurement": "Potency (percent of the initial API concentration)", "setting": "[1]; stored 6 mo. at 25 °C", "result": 97.7},
      {"measurement": "Impurity (MW not given)", "setting": "[1]; stored 6 mo. at 25 °C", "result": 0.04},
      {"measurement": "Impurity MW 279", "setting": "[1]; stored 6 mo. at 25 °C", "result": 0.05},
      {"measurement": "Impurity MW 556", "setting": "[1]; stored 6 mo. at 25 °C", "result": 0.36},
      {"measurement": "Impurity MW 574", "setting": "[1]; stored 6 mo. at 25 °C", "result": 0.03},
      {"measurement": "Potency (percent of the initial API concentration)", "setting": "[1]; stored 6 mo. at 40 °C", "result": 93.3},
      {"measurement": "Impurity (MW not given)", "setting": "[1]; stored 6 mo. at 40 °C", "result": 0.3},
      {"measurement": "Impurity MW 279", "setting": "[1]; stored 6 mo. at 40 °C", "result": 0.4},
      {"measurement": "Impurity MW 556", "setting": "[1]; stored 6 mo. at 40 °C", "result": 1.57},
      {"measurement": "Impurity MW 574", "setting": "[1]; stored 6 mo. at 40 °C", "result": 0.11},
      {"measurement": "molecular weight 556 impurity", "setting": "[1]; comparable formulation without the HPBCD (5 mg/mL, 50 mM glycine buffer, pH 11), at three days", "result": 0.34, "unit": "%"},
      {"measurement": "increase in solubility", "setting": "[2]; 15% HPBCD at pH 9, compared with free acid form at pH 6.3-7.6 formulated with 15% HPBCD", "result": 10, "unit": "fold"},
      {"measurement": "increase in solubility", "setting": "[2]; 15% HPBCD at pH 10.3, compared with free acid form at pH 6.3-7.6 formulated with 15% HPBCD", "result": 30, "unit": "fold"},
      {"measurement": "solubility at the pH maxima considered safe for IV administration", "setting": "[3]; about pH 10", "result": "poorly soluble"},
      {"measurement": "solubility at lower pH", "setting": "[3]; lower pH", "result": "relatively insoluble"},
      {"measurement": "solubility in water", "setting": "[3]; water", "result": "insoluble in water"},
      {"measurement": "Precipitate at 2 min.", "setting": "[4]; 10 mg/mL (pH 9.2) composition, 15% HPBCD, diluted with PBS to 0.009766 mg/mL, pH 7.43", "result": "none"},
      {"measurement": "Precipitate at 2 min.", "setting": "[4]; 10 mg/mL (pH 9.2) composition, 15% HPBCD, diluted with PBS to 0.019531 mg/mL, pH 7.45", "result": "none"},
      {"measurement": "Precipitate at 2 min.", "setting": "[4]; 10 mg/mL (pH 9.2) composition, 15% HPBCD, diluted with PBS to 0.039063 mg/mL, pH 7.47", "result": "none"},
      {"measurement": "Precipitate at 2 min.", "setting": "[4]; 10 mg/mL (pH 9.2) composition, 15% HPBCD, diluted with PBS to 0.078125 mg/mL, pH 7.57", "result": "none"},
      {"measurement": "Precipitate at 2 min.", "setting": "[4]; 10 mg/mL (pH 9.2) composition, 15% HPBCD, diluted with PBS to 0.15625 mg/mL, pH 7.75", "result": "none"},
      {"measurement": "Precipitate at 2 min.", "setting": "[4]; 10 mg/mL (pH 9.2) composition, 15% HPBCD, diluted with PBS to 0.3125 mg/mL, pH 8.01", "result": "none"},
      {"measurement": "Precipitate at 2 min.", "setting": "[4]; 10 mg/mL (pH 9.2) composition, 15% HPBCD, diluted with PBS to 0.625 mg/mL, pH 8.36", "result": "none"},
      {"measurement": "Precipitate at 2 min.", "setting": "[4]; 10 mg/mL (pH 9.2) composition, 15% HPBCD, diluted with PBS to 1.25 mg/mL, pH 8.65", "result": "none"},
      {"measurement": "Precipitate at 2 min.", "setting": "[4]; 10 mg/mL (pH 9.2) composition, 15% HPBCD, diluted with PBS to 2.5 mg/mL, pH 8.83", "result": "none"},
      {"measurement": "Precipitate at 2 min.", "setting": "[4]; 10 mg/mL (pH 9.2) composition, 15% HPBCD, diluted with PBS to 5 mg/mL, pH 9.04", "result": "none"},
      {"measurement": "concentration of Compound 1 on dilution relative to water solubility (FIG. 4)", "setting": "[4]; 10 mg/mL and 30 mg/mL solutions, 15% HPBCD, serial dilution with PBS", "result": "maintained above the water solubility for sufficient time for complete dilution in the blood stream"},
      {"measurement": "tendency to precipitate upon dilution", "setting": "[4]; 10 mg/mL solution versus 30 mg/mL solution, both 15% HPBCD, diluted with PBS", "result": "lower tendency to precipitate upon dilution"},
      {"measurement": "Precipitate at 2 min.", "setting": "[4]; 30 mg/mL (pH 10.5) composition, 15% HPBCD, diluted with PBS to 0.029297 mg/mL, pH 7.55", "result": "yes"},
      {"measurement": "Precipitate at 2 min.", "setting": "[4]; 30 mg/mL (pH 10.5) composition, 15% HPBCD, diluted with PBS to 0.058594 mg/mL, pH 7.68", "result": "yes"},
      {"measurement": "Precipitate at 2 min.", "setting": "[4]; 30 mg/mL (pH 10.5) composition, 15% HPBCD, diluted with PBS to 0.117188 mg/mL, pH 8", "result": "yes"},
      {"measurement": "Precipitate at 2 min.", "setting": "[4]; 30 mg/mL (pH 10.5) composition, 15% HPBCD, diluted with PBS to 0.234375 mg/mL, pH 8.45", "result": "yes"},
      {"measurement": "Precipitate at 2 min.", "setting": "[4]; 30 mg/mL (pH 10.5) composition, 15% HPBCD, diluted with PBS to 0.46875 mg/mL, pH 8.82", "result": "none"},
      {"measurement": "Precipitate at 2 min.", "setting": "[4]; 30 mg/mL (pH 10.5) composition, 15% HPBCD, diluted with PBS to 0.9375 mg/mL, pH 9", "result": "none"},
      {"measurement": "Precipitate at 2 min.", "setting": "[4]; 30 mg/mL (pH 10.5) composition, 15% HPBCD, diluted with PBS to 1.875 mg/mL, pH 9.32", "result": "none"},
      {"measurement": "Precipitate at 2 min.", "setting": "[4]; 30 mg/mL (pH 10.5) composition, 15% HPBCD, diluted with PBS to 3.75 mg/mL, pH 9.6", "result": "none"},
      {"measurement": "Precipitate at 2 min.", "setting": "[4]; 30 mg/mL (pH 10.5) composition, 15% HPBCD, diluted with PBS to 7.5 mg/mL, pH 9.9", "result": "none"},
      {"measurement": "Precipitate at 2 min.", "setting": "[4]; 30 mg/mL (pH 10.5) composition, 15% HPBCD, diluted with PBS to 15 mg/mL, pH 10.17", "result": "none"}
    ]}
  ]
}
